These results are taken from ChEMBL document CHEMBL3046966, “Structure and Fungicidal Activities of 2-Methoxyimino-N-methyl-2-[2-(substituted pyridyloxymethyl)phenyl]acetamide Derivatives” (1998).

Common to all, as to type: functional
Test [1] relates to Botrytis cinerea. In words: Fungicidal activity against Botryotinia fuckeliana assessed as cucumber gray mold disease control at 7.8 ppm foliar application 24 hr after inoculation by curative manner.
Test [2] relates to Blumeria graminis f. sp. tritici. In words: Fungicidal activity against Blumeria graminis f. sp. tritici assessed as wheat powdery mildew disease control at 2 ppm foliar application for 24 hr before inoculation by preventive manner.
Test [3] has as its system Botrytis cinerea. Put plainly: Fungicidal activity against Botryotinia fuckeliana assessed as cucumber gray mold disease control at 7.8 ppm foliar application 24 hr before inoculation by preventive manner.
The subject of test [4] is Pseudoperonospora cubensis. In words: Fungicidal activity against Pseudoperonospora cubensis assessed as cucumber downy mildew disease control at 2 ppm foliar application 24 hr after inoculation by curative manner.
The test system of test [5] is Pseudoperonospora cubensis. Put plainly: Fungicidal activity against Pseudoperonospora cubensis assessed as cucumber downy mildew disease control at 31.3 ppm foliar application 24 hr after inoculation by preventive manner.
The test system of test [6] is Podosphaera fuliginea. Put plainly: Fungicidal activity against Podosphaera fuligineas assessed as cucumber […] mildew disease control at 7.8 ppm foliar application 24 hr after inoculation by curative manner.
The test system of test [7] is Pyricularia oryzae. In words: Fungicidal activity against Magnaporthe oryzae assessed as rice blast disease control at 31.3 ppm foliar application for 24 hr before inoculation by preventive manner.
The test system of test [8] is Podosphaera fuliginea. Put plainly: Fungicidal activity against Podosphaera fuligineas assessed as cucumber […] mildew disease control at 7.8 ppm foliar application 24 hr before inoculation by preventive manner.
In test [9] the test system is Blumeria graminis f. sp. tritici. In words: Fungicidal activity against Blumeria graminis f. sp. tritici assessed as wheat powdery mildew disease control at 7.8 ppm foliar application for 24 hr after inoculation by curative manner.
In test [10] the test system is Pyricularia oryzae. In words: Fungicidal activity against Magnaporthe oryzae assessed as rice blast disease control at 31.3 ppm foliar application for 24 hr after inoculation by curative manner.
Test [11] relates to Botrytis cinerea. Put plainly: Fungicidal activity against Botryotinia fuckeliana assessed as cucumber gray mold disease control at 31.3 ppm foliar application 24 hr before inoculation by preventive manner.
Test [12] concerns Pseudoperonospora cubensis. In words: Fungicidal activity against Pseudoperonospora cubensis assessed as cucumber downy mildew disease control at 7.8 ppm foliar application 24 hr after inoculation by curative manner.
Test [13] deals with Blumeria graminis f. sp. tritici. In words: Fungicidal activity against Blumeria graminis f. sp. tritici assessed as wheat powdery mildew disease control at 31.3 ppm foliar application for 24 hr after inoculation by curative manner.
Test [14] has as its system Pseudoperonospora cubensis. In words: Fungicidal activity against Pseudoperonospora cubensis assessed as cucumber downy mildew disease control at 125 ppm foliar application 24 hr after inoculation by preventive manner.
Test [15] has as its system Podosphaera fuliginea. Put plainly: Fungicidal activity against Podosphaera fuligineas assessed as cucumber […] mildew disease control at 31.3 ppm foliar application 24 hr before inoculation by preventive manner.
Test [16] relates to Pyricularia oryzae. Put plainly: Fungicidal activity against Magnaporthe oryzae assessed as rice blast disease control at 7.8 ppm foliar application for 24 hr after inoculation by curative manner.
The subject of test [17] is Blumeria graminis f. sp. tritici. Put plainly: Fungicidal activity against Blumeria graminis f. sp. tritici assessed as wheat powdery mildew disease control at 125 ppm foliar application for 24 hr before inoculation by preventive manner.
Test [18] deals with Podosphaera fuliginea. In words: Fungicidal activity against Podosphaera fuligineas assessed as cucumber […] mildew disease control at 125 ppm foliar application 24 hr after inoculation by curative manner.
The subject of test [19] is Podosphaera fuliginea. Put plainly: Fungicidal activity against Podosphaera fuligineas assessed as cucumber […] mildew disease control at 125 ppm foliar application 24 hr before inoculation by preventive manner.
The subject of test [20] is Botrytis cinerea. Put plainly: Fungicidal activity against Botryotinia fuckeliana assessed as cucumber gray mold disease control at 125 ppm foliar application 24 hr before inoculation by preventive manner.
The test system of test [21] is Botrytis cinerea. Put plainly: Fungicidal activity against Botryotinia fuckeliana assessed as cucumber gray mold disease control at 125 ppm foliar application 24 hr after inoculation by curative manner.
Test [22] deals with Blumeria graminis f. sp. tritici. In words: Fungicidal activity against Blumeria graminis f. sp. tritici assessed as wheat powdery mildew disease control at 7.8 ppm foliar application for 24 hr before inoculation by preventive manner.
The test system of test [23] is Botrytis cinerea. Put plainly: Fungicidal activity against Botryotinia fuckeliana assessed as cucumber gray mold disease control at 2 ppm foliar application 24 hr after inoculation by curative manner.
Test [24] has as its system Podosphaera fuliginea. Put plainly: Fungicidal activity against Podosphaera fuligineas assessed as cucumber […] mildew disease control at 31.3 ppm foliar application 24 hr after inoculation by curative manner.
Test [25] has as its system Pyricularia oryzae. Put plainly: Fungicidal activity against Magnaporthe oryzae assessed as rice blast disease control at 125 ppm foliar application for 24 hr before inoculation by preventive manner.
For test [26], the system named is Blumeria graminis f. sp. tritici. Put plainly: Fungicidal activity against Blumeria graminis f. sp. tritici assessed as wheat powdery mildew disease control at 125 ppm foliar application for 24 hr after inoculation by curative manner.
Test [27] concerns Pyricularia oryzae. Put plainly: Fungicidal activity against Magnaporthe oryzae assessed as rice blast disease control at 125 ppm foliar application for 24 hr after inoculation by curative manner.
Test [28] has as its system Podosphaera fuliginea. Put plainly: Fungicidal activity against Podosphaera fuligineas assessed as cucumber […] mildew disease control at 2 ppm foliar application 24 hr after inoculation by curative manner.
In test [29] the test system is Podosphaera fuliginea. Put plainly: Fungicidal activity against Podosphaera fuligineas assessed as cucumber […] mildew disease control at 2 ppm foliar application 24 hr before inoculation by preventive manner.
The test system of test [30] is Pseudoperonospora cubensis. In words: Fungicidal activity against Pseudoperonospora cubensis assessed as cucumber downy mildew disease control at 125 ppm foliar application 24 hr after inoculation by curative manner.

Bounds are passed on as bounds.

For the compound `CNC(=O)/C(=N/OC)c1ccccc1COc1cccc(Cl)n1`, the Activity in [1], in test [2], in test [3], in test [4], in test [5] and in [6] was 90% each time. In addition, the Activity in [7], in test [8], in [9] and in test [10] was 90% throughout.

As to `CNC(=O)/C(=N/OC)c1ccccc1COc1cccc(Br)n1`, the Activity in [1], in test [2], in test [11], in test [12], in [6] and in test [7] was 90% each time. The Activity in [13], in [14], in test [15] and in test [16] was 90% each time.

With `CNC(=O)/C(=N/OC)c1ccccc1COc1cc(C(F)(F)F)ccn1`, the Activity in [17] is listed as 90%; in test [12] it was 90%; in test [18], 90%; in test [7], 90%; in test [19] it was 90%; in [20], less than 90%. The Activity in test [13] is on record as 90%; in [14] it was less than 90%; in test [21], less than 90%; in [10], 90%.

In the case of `CNC(=O)/C(=N/OC)c1ccccc1COc1ccc(C(F)(F)F)cn1`, the Activity in test [22], in test [12], in [3], in [5], in test [6] and in test [7] was 90% throughout. Further, the Activity in [23], in [15], in test [9] and in test [10] was 90% in each case.

Turning to `CNC(=O)/C(=N/OC)c1ccccc1COc1cccc(C(F)(F)F)n1`, the Activity in [2], in [11], in test [4], in test [5], in [6] and in test [7] was 90% each time. Also, the Activity in test [8], in test [21], in test [9] and in [16] was 90% throughout.

Regarding `CNC(=O)/C(=N/OC)c1ccccc1COc1cccc(SC)n1`, the Activity in [17], in test [12], in [20], in [14], in [24] and in test [15] was 90% throughout. Moreover, the Activity in [21], in test [25] and in test [26] was less than 90% in each case.

In the case of `CNC(=O)/C(=N/OC)c1ccccc1COc1cc(C(F)(F)F)cc(Cl)n1`, the Activity in [17] is recorded as 90%; in [12], 90%; in [18], 90%; in test [19], 90%; in test [20], less than 90%; in test [14], less than 90%. For the same compound, the Activity is less than 90% in test [27], less than 90% in [21], 90% in test [25] and 90% in test [26].

Turning to `CNC(=O)/C(=N/OC)c1ccccc1COc1nc(OC(C)C)ccc1C(F)(F)F`, the Activity in test [22], in test [12], in [6], in test [7], in test [20] and in test [8] was 90% in each case. Besides, the Activity in test [13] is 90%; in test [14] it was less than 90%; in test [21], less than 90%; in [10], 90%.

Regarding `CNC(=O)/C(=N/OC)c1ccccc1COc1ccc(C(F)(F)F)c(OC)n1`, the Activity in test [17], in test [28], in test [3], in test [4], in test [5] and in test [27] was 90% each time. The Activity in [21], in [9], in test [29] and in test [25] was 90% each time.

In the case of `CNC(=O)/C(=N/OC)c1ccccc1COc1ccc(C(F)(F)F)c(NC)n1`, the Activity in test [12] is reported as 90%; in test [6], 90%; in test [20], 90%; in test [8], 90%; in [14] it was 90%; in [27] it was less than 90%. For the same compound, the Activity was 90% in test [21], less than 90% in [25] and 90% in test [26].

For the compound `CNC(=O)/C(=N/OC)c1ccccc1COc1nc(Cl)c(C(F)(F)F)cc1C(F)(F)F`, the Activity in [2] is 90%; in test [30] it was less than 90%; in test [11], 90%; in test [4], 90%; in test [6] it was 90%; in [27], less than 90%. In addition, the Activity in test [21], in [9], in [29] and in [25] was 90% throughout.

Consider `CNC(=O)/C(=N/OC)c1ccccc1COc1nc(Cl)c(Cl)c(C(F)(F)F)c1Cl`, for which the Activity in test [30] is on record as 90%; in test [17], less than 90%; in [18], 90%; in test [19], 90%; in test [21] it was less than 90%; in test [25], less than 90%. The Activity in test [26] is listed as less than 90%.

With `CNC(=O)/C(=N/OC)c1ccccc1COc1cccnc1Cl`, the Activity in test [1] is 90%; in [30], 90%; in test [17] it was less than 90%; in [11] it was 90%; in test [3] it was 90%; in [24], 90%. The results for the Activity in test [15], in [25] and in [26] were 90%, less than 90% and less than 90%, respectively.

For `CNC(=O)/C(=N/OC)c1ccccc1COc1cc(C(F)(F)F)nc(C(F)(F)F)c1`, the Activity in test [30] is 90%; in [17], less than 90%; in test [18] it was less than 90%; in test [19], less than 90%; in [20] it was less than 90%; in test [14], less than 90%. The Activity in test [25] and in test [26] was less than 90% in each case.

As for `CNC(=O)/C(=N\OC)c1ccccc1COc1ccccn1`, the Activity is listed as less than 90% in [30]; 90% in [17]; less than 90% in test [18]; less than 90% in [19]; less than 90% in test [20]; less than 90% in test [25]. Further, in [26], the Activity is recorded as less than 90%.

In the case of `CNC(=O)/C(=N/OC)c1ccccc1COc1ncccc1Cl`, the Activity in [11], in test [22], in test [12], in [5], in test [6] and in test [7] was 90% each time. For the same compound, the Activity in [23], in test [8], in [9] and in test [16] was 90% throughout.
